Experiment [1] concerns the target T1, proMMP9(20-445;ΔFnII) (SEQ ID NO:6) (Homo sapiens, UniProt P14780, DEL216-390).
T1 construct: start methionine (N); made in house; host or cells: E. coli BL21(DE3) RIL
T1 sequence (P14780 with tags, fused parts or gaps DEL216-390): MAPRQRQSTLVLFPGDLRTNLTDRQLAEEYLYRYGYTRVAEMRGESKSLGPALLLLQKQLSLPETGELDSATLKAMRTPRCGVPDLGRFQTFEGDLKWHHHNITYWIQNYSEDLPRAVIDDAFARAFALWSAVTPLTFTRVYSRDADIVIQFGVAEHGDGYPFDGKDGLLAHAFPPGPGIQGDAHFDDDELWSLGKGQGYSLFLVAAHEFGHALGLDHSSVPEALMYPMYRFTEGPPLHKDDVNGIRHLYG
Briefly: ThermoFluor binding assay with proMMP9(20-445;ΔFnII). As to conditions: pH 7.0. An outline of the steps:
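proMMP9(20-445;ΔFnII) at 2.8 μM with 50 μM 1,8-ANS in 50 mM HEPES pH 7.0, 100 mM NaCl, 0.001% Tween-20, 2.5 mM MgCl2, 300 μM CaCl2; compounds serially diluted in DMSO. Heated 40–90 °C at 1 °C/min, fluorescence read at 500±25 nm. Tm fit by standard equations; binding fit using DSC/TF-derived thermodynamic parameters.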

In experiment [2] the target is T2, proMMP9(67-444;ΔFnII) (SEQ ID NO:5) (Homo sapiens, UniProt P14780, DEL216-390).
T2 construct: start methionine (N); made in house; host or cells: E. coli BL21(DE3) RIL
T2 sequence (P14780 with tags, fused parts or gaps DEL216-390): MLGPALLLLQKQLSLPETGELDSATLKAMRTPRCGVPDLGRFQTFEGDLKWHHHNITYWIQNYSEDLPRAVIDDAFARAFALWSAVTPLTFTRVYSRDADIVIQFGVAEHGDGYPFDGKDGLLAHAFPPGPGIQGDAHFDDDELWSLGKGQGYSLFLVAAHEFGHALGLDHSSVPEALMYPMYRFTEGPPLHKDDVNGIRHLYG
Briefly: ThermoFluor binding assay with proMMP9(67-444;ΔFnII). As to conditions: pH 7.0. A digest of the protocol: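 Thermal shift binding with 3.5 μM proMMP9(67-444;ΔFnII) and 50 μM 1,8-ANS in 50 mM HEPES pH 7.0, 100 mM NaCl, 2.5 mM MgCl2, 300 μM CaCl2, 0.001% Tween-20, with serially diluted compound. Heated 40 to 90° C at 1° C/min; fluorescence-derived Tm fitted using DSC/ThermoFluor thermodynamic parameters.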

Experiment [3] deals with T3, full-length proMMP9(1-707) (SEQ ID NO:1) (Homo sapiens, UniProt P14780, R574P).
T3 construct: made in house; host or cells: HEK293 (proMMP9, secreted); E. coli (MMP3)
In words: proMMP9/MMP3 P126 Activation Assay. As to conditions: 20 nM proMMP9, 20 nM MMP3, 80 min 37° C. It counts as biochemical. As for the experimental part:
The reaction volume was 50 μL. […] Reactivity of residual MMP3 towards P-126 substrate was minimal under these conditions.

Experiment [4] deals with proMMP13(1-268) (SEQ ID NO:7) (Homo sapiens, UniProt P45452). Briefly: ThermoFluor binding assay with proMMP13(1-268). Details: 6xHis (C); made in house. Conditions: pH 7.0. As for the experimental part: The ThermoFluor® (TF) assay is a 384-well plate-based binding assay that measures thermal stability of proteins (Biomol Screen 2001, 6, 429-40; Biochemistry 2005, 44, 5258-66). The experiments were carried out using instruments available from Johnson & Johnson Pharmaceutical Research & Development, LLC. TF dye used in all experiments was […] (1,8-ANS) (Invitrogen: A-47).
Compounds were arranged in a pre-dispensed plate (Greiner Bio-one: 781280), wherein compounds were serially diluted in 100% DMSO across 11 columns within a series. Columns 12 and 24 were used as DMSO reference and contained no compound. For multiple compound concentration-response experiments, the compound aliquots ([…]) were robotically predispensed directly into black 384-well polypropylene PCR microplates (Abgene: TF-0384/k) using a Cartesian Hummingbird liquid handler (DigiLab, Holliston, Mass.). Following compound dispense, protein and dye solutions were added to achieve the final assay volume of 3 μL. The assay solutions were overlayed with 1 μL of silicone oil (Fluka, type DC 200: 85411) to prevent evaporation.
Assay plates were robotically loaded onto a thermostatically controlled PCR-type thermal block and then heated from 40 to 90° C. at a ramp-rate of 1° C./min for all experiments. Fluorescence was measured by continuous illumination with UV light (Hamamatsu LC6) supplied via fiber optics and filtered through a band-pass filter (380-400 nm; >6 OD cutoff). Fluorescence emission of the entire 384-well plate was detected by measuring light intensity using a CCD camera (Sensys, Roper Scientific) filtered to detect 500±25 nm, resulting in simultaneous and independent readings of all 384 wells. A single image with 20-sec exposure time was collected at each temperature, and the sum of the pixel intensity in a given area of the assay plate was recorded vs temperature and fit to standard equations to yield the Tm (J Biomol Screen 2001, 6, 429-40).
Thermodynamic parameters necessary for fitting compound binding for each proMMP were estimated by differential scanning calorimetry (DSC) and from ThermoFluor® data. The heat capacity of unfolding for each protein was estimated from the molecular weight and from ThermoFluor® dosing data.
The proMMP13(1-268) (SEQ ID NO:7) protein sample preparations included a desalting buffer exchange step via a PD-10 gravity column (GE Healthcare). The desalting buffer exchange was performed prior to diluting the protein to the final assay concentration of 3.5 μM. The concentration of proMMP13(1-268) (SEQ ID NO:7) was estimated spectrophotometrically based on a calculated extinction coefficient of ε280=37000 M^−1cm^−1, a calculated molecular weight of 30.8 kDa, and calculated pI of 5.33. ThermoFluor® reference conditions were defined as follows: 100 μg/mL proMMP13(1-268) (SEQ ID NO:7), 25 μM 1,8-ANS, pH 7.0 Buffer (50 mM HEPES pH 7.0, 100 mM NaCl, 0.001% Tween-20, 2.5 mM MgCl2, 300 μM CaCl2). The thermodynamic parameters for proMMP13(1-268) (SEQ ID NO:7) are as follows: Tm (° C.)=67 (+/−0.1), ΔUH(Tm) (cal mol^−1)=107000(+/−5000), ΔUS(Tm) (cal mol^−1 K^−1)=318, ΔUCp (cal mol^−1 K^−1)=2600.

Where a name gives a salt, the structure may show the parent alone. A value given as a limit tells only on which side of the number the result lay.

T3 sequence (P14780 20-707 R574P): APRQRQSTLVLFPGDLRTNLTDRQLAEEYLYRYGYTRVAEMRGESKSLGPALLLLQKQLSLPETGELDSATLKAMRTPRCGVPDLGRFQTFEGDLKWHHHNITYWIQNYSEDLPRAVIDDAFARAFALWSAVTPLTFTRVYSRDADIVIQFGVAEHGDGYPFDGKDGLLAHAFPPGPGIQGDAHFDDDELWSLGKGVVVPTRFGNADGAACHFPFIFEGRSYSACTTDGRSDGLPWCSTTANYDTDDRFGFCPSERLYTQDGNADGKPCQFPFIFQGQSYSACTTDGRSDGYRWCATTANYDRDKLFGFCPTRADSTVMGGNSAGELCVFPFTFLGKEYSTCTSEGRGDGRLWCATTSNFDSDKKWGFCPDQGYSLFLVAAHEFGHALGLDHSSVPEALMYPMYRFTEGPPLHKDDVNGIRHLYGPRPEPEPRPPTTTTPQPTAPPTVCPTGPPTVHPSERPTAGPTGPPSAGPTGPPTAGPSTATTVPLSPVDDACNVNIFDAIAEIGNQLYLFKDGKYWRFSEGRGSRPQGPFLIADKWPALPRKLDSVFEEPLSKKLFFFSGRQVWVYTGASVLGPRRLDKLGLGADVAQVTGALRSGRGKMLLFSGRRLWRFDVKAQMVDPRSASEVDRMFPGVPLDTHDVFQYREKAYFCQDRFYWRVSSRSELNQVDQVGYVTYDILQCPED

By Kd is commonly meant the constant that tells how readily two partners part at equilibrium. Low readings indicate tighter binding, high ones weaker binding. For orientation: IC50 means the concentration that gives 50% inhibition. For the compound `Cc1nc(C)c(-c2csc(Nc3cc(C(N)=O)ccc3OC(C)C)n2)s1` [Example 1, 3-(2′,4′-Dimethyl-[4,5′]bithiazolyl-2-ylamino)-4-isopropoxy-benzamide.HBr], the Kd is 26 nM in experiment [1], 170 nM in experiment [2] and 140 nM in experiment [4]. In experiment [3], this compound displayed a 50% inhibitory concentration (IC50) of 160 nM.

As to `Cc1nc(N)sc1-c1csc(Nc2cc(C(N)=O)ccc2OC(C)C)n1` [Example 2, 3-(2′-Amino-4′-methyl-[4,5′]bithiazolyl-2-ylamino)-4-isopropoxy-benzamide.HBr], the dissociation constant (Kd) in experiment [1] amounted to 21 nM; in experiment [2] it was 160 nM; in experiment [4], 81 nM. Also, half-maximal inhibition in experiment [3] (IC50) was put at 160 nM.

For the compound `CC(=O)Nc1nc(C)c(-c2csc(Nc3cc(C(N)=O)ccc3OC(C)C)n2)s1` [Example 3, 3-(2′-Acetylamino-4′-methyl-[4,5′]bithiazolyl-2-ylamino)-4-isopropoxy-benzamide.HBr], the values for the Kd in experiment [1], in experiment [2] and in experiment [4] were 410 nM, 300 nM and 300 nM, respectively. This compound also registered an IC50 in experiment [3] of 130 nM.

As for `Cc1nc(C)c(-c2nc(Nc3cc(C(N)=O)ccc3OC(C)C)sc2Br)s1` [Example 4, 3-(5-Bromo-2′,4′-dimethyl-[4,5′]bithiazolyl-2-ylamino)-4-isopropoxy-benzamide], the values for the Kd in experiment [1], in experiment [2] and in experiment [4] were 1200 nM, 3100 nM and 3200 nM, respectively. In addition, the half-maximal inhibitory concentration (IC50) in experiment [3] was found to be 9000 nM.

As for `COc1ccc(C(N)=O)cc1Nc1nc(-c2sc(N)nc2C)cs1` [Example 5, 3-(2′-Amino-4′-methyl-[4,5′]bithiazolyl-2-ylamino)-4-methoxy-benzamide.HBr], the Kd stood at 270 nM in experiment [1], 560 nM in experiment [2] and 4900 nM in experiment [4]. Also, in experiment [3], the IC50 came to 850 nM.

`CCOc1ccc(C(N)=O)cc1Nc1nc(-c2sc(C)nc2C)cs1` [Example 6, 3-(2′,4′-Dimethyl-[4,5′]bithiazolyl-2-ylamino)-4-ethoxy-benzamide.TFA]: the Kd in experiment [1] was 200 nM; in experiment [2], 580 nM; in experiment [4], 2000 nM. The compound further had a concentration for half-maximal inhibition (IC50) in experiment [3] of 160 nM.

Consider `CCOc1ccc(C(N)=O)cc1Nc1nc(-c2sc(N)nc2C)cs1` [Example 7, 3-(2′-Amino-4′-methyl-[4,5′]bithiazolyl-2-ylamino)-4-ethoxy-benzamide], for which the Kd in experiment [1] is 89 nM; in experiment [2], 340 nM; in experiment [4], 1400 nM. The half-inhibitory concentration (IC50) in experiment [3] is 260 nM.

Take `CCOc1ccc(C(N)=O)cc1Nc1nc(-c2sc(NC(C)=O)nc2C)cs1` [Example 8, 3-(2′-Acetylamino-4′-methyl-[4,5′]bithiazolyl-2-ylamino)-4-ethoxy-benzamide.TFA]: the Kd amounted to 1300 nM in experiment [1], 560 nM in experiment [2] and 39000 nM in experiment [4]. In experiment [3], this compound had a 50% inhibitory concentration (IC50) of 100 nM.

On to `CCCOc1ccc(C(N)=O)cc1Nc1nc(-c2sc(C)nc2C)cs1` [Example 13, 3-(2′,4′-Dimethyl-[4,5′]bithiazolyl-2-ylamino)-4-propoxy-benzamide], for which the results for the Kd in experiment [1], in experiment [2] and in experiment [4] were 830 nM, 5100 nM and 7000 nM, respectively. Also, it took 6100 nM to reach half-maximal inhibition in experiment [3] (IC50).

Regarding `Cc1nc(C)c(-c2csc(Nc3cc(C(N)=O)ccc3OC3CCCC3)n2)s1` [Example 15, 4-Cyclopentyloxy-3-(2′,4′-dimethyl-[4,5′]bithiazolyl-2-ylamino)-benzamide], the dissociation constant (Kd) in experiment [1] is 7900 nM; in experiment [2], over 95000 nM; in experiment [4] it was 13000 nM. Also, the IC50 in experiment [3] is over 20000 nM.

Turning to `Cc1nc(C)c(-c2csc(Nc3cc(C(N)=O)ccc3OC(F)(F)F)n2)s1` [Example 17, 3-(2′,4′-Dimethyl-[4,5′]bithiazolyl-2-ylamino)-4-trifluoromethoxy-benzamide], the Kd came to 82 nM in experiment [1], 730 nM in experiment [2] and 12000 nM in experiment [4]. Further, the IC50 in experiment [3] stood at 460 nM.

As for `COc1ccc(C(N)=O)cc1Nc1nc(-c2sc(C)nc2C)cs1` [Example 18, 3-(2′,4′-Dimethyl-[4,5′]bithiazolyl-2-ylamino)-4-methoxy-benzamide.HBr], the dissociation constant (Kd) turned out to be 340 nM in experiment [1], 840 nM in experiment [2] and 14000 nM in experiment [4]. This compound registered an IC50 in experiment [3] of 690 nM.

`Cc1ccc(C(N)=O)cc1Nc1nc(-c2sc(N)nc2C)cs1` [Example 25, 3-(2′-Amino-4′-methyl-[4,5′]bithiazolyl-2-ylamino)-4-methyl-benzamide.HBr]: the results for the Kd in experiment [1], in experiment [2] and in experiment [4] were 2700 nM, 6800 nM and 31000 nM, respectively. In experiment [3], this compound registered a 50% inhibitory concentration (IC50) of 4600 nM.

Take `CC(=O)Nc1nc(C)c(-c2csc(Nc3cc(C(N)=O)ccc3Cl)n2)s1` [Example 26, 3-(2′-Acetylamino-4′-methyl-[4,5′]bithiazolyl-2-ylamino)-4-chloro-benzamide.HBr]: the figures for the Kd in experiment [1], in experiment [2] and in experiment [4] were 8900 nM, 3000 nM and 84000 nM, respectively. The compound also came in with an IC50 in experiment [3] of over 20000 nM.

Turning to `Cc1nc(C)c(-c2csc(Nc3cc(C(N)=O)ccc3OCC(C)C)n2)s1` [Example 28, 3-(2′,4′-Dimethyl-[4,5′]bithiazolyl-2-ylamino)-4-isobutoxy-benzamide], the equilibrium dissociation constant (Kd) is 11000 nM in experiment [1], over 95000 nM in experiment [2] and 56000 nM in experiment [4]. The same compound returned an IC50 in experiment [3] of over 20000 nM.

Turning to `Cc1cc2cccc(Nc3nc(-c4sc(C)nc4C)cs3)c2o1` [Example 29, (2′,4′-Dimethyl-[4,5′]bithiazolyl-2-yl)-(2-methyl-benzofuran-7-yl)-amine], the figures for the Kd in experiment [1], in experiment [2] and in experiment [4] were 61000 nM, over 95000 nM and over 95000 nM, respectively. The compound also returned a half-maximal inhibitory concentration (IC50) in experiment [3] of 3800 nM.

Turning to `Cc1nc(C(=O)N2CCC(O)CC2)sc1-c1csc(Nc2cc(C(N)=O)ccc2OC(C)C)n1` [Example 105, 3-[2′-(4-Hydroxy-piperidine-1-carbonyl)-4′-methyl-[4,5′]bithiazolyl-2-ylamino]-4-isopropoxy-benzamide.TFA], the Kd in experiment [1] came out at 240 nM; in experiment [2], 2900 nM; in experiment [4], 1300 nM.

The values are drawn from patent publication US20120129842A1, “BISTHIAZOLE INHIBITORS OF PRO-MATRIX METALLOPROTEINASE ACTIVATION” (priority 2010, published 2012).
